What was measured:
[1] = target: T1, C-X-C chemokine receptor type 2 (Homo sapiens, UniProt P25025); type: cell membranes, Membrane; conditions: cho-k1; also: in other assays of this panel Not Active means under 50% inhibition at 10 µM
T1 sequence (P25025 whole entry): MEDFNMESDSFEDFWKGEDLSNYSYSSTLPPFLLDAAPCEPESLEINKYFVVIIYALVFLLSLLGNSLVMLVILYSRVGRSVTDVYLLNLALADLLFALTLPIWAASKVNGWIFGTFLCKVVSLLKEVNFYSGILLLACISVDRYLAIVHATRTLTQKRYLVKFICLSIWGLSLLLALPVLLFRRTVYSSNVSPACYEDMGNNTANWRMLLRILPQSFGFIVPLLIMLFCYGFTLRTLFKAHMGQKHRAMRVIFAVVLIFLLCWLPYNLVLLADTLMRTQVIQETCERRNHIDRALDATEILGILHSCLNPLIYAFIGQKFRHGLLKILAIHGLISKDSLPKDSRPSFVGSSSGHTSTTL

[2] = target: Kappa-type opioid receptor (Homo sapiens, UniProt P41145); experiment: DRUGMATRIX: Opiate kappa (OP2, KOP) radioligand binding (ligand: [3H] Diprenorphine); type: cell membranes, HEK293, Membrane; conditions: hek293; Not Active = under 50% inhibition at 10 µM
Chain of Kappa-type opioid receptor (P41145 whole entry): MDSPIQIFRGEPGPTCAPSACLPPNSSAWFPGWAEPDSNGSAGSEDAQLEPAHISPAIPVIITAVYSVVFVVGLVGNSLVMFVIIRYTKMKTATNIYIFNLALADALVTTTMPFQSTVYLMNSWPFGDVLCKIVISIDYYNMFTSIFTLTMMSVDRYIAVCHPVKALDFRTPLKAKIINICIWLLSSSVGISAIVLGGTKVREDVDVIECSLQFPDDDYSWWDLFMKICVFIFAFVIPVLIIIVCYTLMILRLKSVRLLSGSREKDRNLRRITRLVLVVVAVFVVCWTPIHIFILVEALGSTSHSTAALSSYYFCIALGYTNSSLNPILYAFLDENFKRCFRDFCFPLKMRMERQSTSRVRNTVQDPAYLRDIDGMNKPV

[3] = target: T2, Vasoactive intestinal polypeptide receptor 1 (Homo sapiens, UniProt P32241); type: cell membranes, Membrane; conditions: ht-29; also: in other assays of this panel Not Active means under 50% inhibition at 10 µM
T2 sequence (P32241 whole entry): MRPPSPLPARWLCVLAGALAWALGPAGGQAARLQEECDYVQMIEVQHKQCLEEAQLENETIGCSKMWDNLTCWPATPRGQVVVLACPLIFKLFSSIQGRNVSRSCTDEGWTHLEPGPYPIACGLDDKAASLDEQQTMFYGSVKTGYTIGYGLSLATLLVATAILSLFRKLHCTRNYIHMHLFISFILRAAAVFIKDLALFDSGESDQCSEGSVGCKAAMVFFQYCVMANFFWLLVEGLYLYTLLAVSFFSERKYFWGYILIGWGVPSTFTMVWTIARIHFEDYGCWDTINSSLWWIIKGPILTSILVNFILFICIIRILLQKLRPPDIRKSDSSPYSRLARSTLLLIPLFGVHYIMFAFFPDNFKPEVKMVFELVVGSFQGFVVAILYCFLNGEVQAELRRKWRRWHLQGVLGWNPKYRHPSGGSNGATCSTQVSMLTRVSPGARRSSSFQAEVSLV

[4] = target: T3, Nitric oxide synthase, inducible (Mus musculus, UniProt P29477); parameters: species or system Escherichia coli;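 also: inhibition of iNOS enzyme activity measured with L-arginine as substrate; in other assays of this panel Not Active means under 50% inhibition at 10 µM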
T3 sequence (P29477 whole entry): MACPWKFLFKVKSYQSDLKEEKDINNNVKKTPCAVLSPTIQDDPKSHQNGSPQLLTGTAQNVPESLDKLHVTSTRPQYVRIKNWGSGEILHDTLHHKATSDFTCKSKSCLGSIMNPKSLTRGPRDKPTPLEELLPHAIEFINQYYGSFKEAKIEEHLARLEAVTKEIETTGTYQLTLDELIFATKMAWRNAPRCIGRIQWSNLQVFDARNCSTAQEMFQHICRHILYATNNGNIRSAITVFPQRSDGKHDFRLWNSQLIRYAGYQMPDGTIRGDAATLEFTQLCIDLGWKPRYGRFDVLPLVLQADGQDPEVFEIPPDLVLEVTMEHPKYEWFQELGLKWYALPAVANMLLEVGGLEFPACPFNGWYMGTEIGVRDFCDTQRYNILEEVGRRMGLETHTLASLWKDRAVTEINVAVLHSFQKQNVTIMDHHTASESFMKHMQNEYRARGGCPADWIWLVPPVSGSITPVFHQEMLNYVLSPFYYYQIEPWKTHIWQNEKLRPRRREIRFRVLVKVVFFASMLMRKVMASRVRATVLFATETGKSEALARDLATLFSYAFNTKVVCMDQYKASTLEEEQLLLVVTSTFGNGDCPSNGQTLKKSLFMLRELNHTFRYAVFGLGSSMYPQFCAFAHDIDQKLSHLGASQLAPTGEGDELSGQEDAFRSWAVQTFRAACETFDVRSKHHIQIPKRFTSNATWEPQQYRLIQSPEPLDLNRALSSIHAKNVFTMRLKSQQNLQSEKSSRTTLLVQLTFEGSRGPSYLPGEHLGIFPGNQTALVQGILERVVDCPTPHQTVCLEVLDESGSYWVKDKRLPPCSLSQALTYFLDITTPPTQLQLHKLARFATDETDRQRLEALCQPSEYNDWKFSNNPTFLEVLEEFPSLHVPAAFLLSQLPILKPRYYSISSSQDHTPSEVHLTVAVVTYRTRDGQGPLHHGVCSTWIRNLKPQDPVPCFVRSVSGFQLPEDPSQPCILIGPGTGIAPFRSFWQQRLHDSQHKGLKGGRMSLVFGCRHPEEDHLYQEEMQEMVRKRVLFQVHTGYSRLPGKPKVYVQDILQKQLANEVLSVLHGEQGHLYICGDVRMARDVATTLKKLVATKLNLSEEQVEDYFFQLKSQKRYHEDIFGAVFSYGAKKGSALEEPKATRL

[5] = target: T4, Alpha-1D adrenergic receptor (Homo sapiens, UniProt P25100); type: cell membranes, HEK293, Membrane; conditions: hek293; also: in other assays of this panel Not Active means under 50% inhibition at 10 µM
T4 sequence (P25100 whole entry): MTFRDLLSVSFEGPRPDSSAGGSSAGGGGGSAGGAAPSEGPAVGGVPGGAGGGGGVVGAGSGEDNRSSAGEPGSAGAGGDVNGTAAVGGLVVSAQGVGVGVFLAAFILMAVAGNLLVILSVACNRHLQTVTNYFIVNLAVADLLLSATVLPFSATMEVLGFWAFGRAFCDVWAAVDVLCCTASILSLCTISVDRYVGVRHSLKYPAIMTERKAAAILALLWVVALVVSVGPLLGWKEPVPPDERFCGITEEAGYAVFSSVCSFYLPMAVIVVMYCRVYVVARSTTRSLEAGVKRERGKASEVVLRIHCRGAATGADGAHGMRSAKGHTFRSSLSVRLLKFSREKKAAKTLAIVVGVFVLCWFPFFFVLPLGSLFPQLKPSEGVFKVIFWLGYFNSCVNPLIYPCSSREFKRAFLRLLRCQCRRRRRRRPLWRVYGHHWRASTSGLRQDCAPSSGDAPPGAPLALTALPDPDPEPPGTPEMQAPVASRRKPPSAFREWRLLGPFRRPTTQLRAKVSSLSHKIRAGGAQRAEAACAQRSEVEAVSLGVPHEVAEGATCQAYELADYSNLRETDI

[6] = target: C-C chemokine receptor type 5 (Homo sapiens, UniProt P51681); type: cell membranes, Membrane; conditions: hek293; also: in other assays of this panel Not Active means under 50% inhibition at 10 µM
Chain of C-C chemokine receptor type 5 (P51681 whole entry): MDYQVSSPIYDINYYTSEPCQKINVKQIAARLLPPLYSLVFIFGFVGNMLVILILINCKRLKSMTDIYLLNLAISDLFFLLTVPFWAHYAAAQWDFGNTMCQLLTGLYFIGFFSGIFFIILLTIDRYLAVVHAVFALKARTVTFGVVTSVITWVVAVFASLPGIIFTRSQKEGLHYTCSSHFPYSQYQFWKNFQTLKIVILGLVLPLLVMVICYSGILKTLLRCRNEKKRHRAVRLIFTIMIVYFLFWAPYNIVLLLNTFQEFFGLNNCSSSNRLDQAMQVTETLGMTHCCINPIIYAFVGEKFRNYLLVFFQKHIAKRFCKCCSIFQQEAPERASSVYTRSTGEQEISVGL

[7] = DRUGMATRIX: Platelet-Derived Growth Factor (PDGF) radioligand binding (ligand: [125I] PDGF); type: cell-based; conditions: nih3t3; Not Active = under 50% inhibition at 10 µM

O=c1cc(-c2ccccc2)oc2ccc3ccccc3c12 [BETA-NAPHTHOFLAVONE]
Not Active: IC50 [1] | IC50 [2] | IC50 [3] | IC50 [4] | IC50 [5] | IC50 [6] | IC50 [7] | Ki [7]

CS(=O)(=O)OCCCCOS(C)(=O)=O [BUSULFAN]
Not Active: IC50 [1] | IC50 [2] | IC50 [3] | IC50 [4] | IC50 [5] | IC50 [6] | IC50 [7] | Ki [7]

O=C(/C=C/c1ccc(O)c(O)c1)OCCc1ccccc1 [CAFFEIC ACID PHENETHYL ESTER]
Not Active: IC50 [1] | IC50 [2] | IC50 [3] | IC50 [4] | IC50 [5] | IC50 [6] | IC50 [7] | Ki [7]

COc1cc(CNC(=O)CCCC/C=C/C(C)C)ccc1O [CAPSAICIN]
Not Active: IC50 [1] | IC50 [2] | IC50 [3] | IC50 [4] | IC50 [5] | IC50 [6] | IC50 [7] | Ki [7]

NC(=O)N1c2ccccc2C=Cc2ccccc21 [CARBAMAZEPINE]
Not Active: IC50 [1] | IC50 [2] | IC50 [3] | IC50 [4] | IC50 [5] | IC50 [6] | IC50 [7] | Ki [7]

CCOC(=O)n1ccn(C)c1=S [CARBIMAZOLE]
Not Active: IC50 [1] | IC50 [2] | IC50 [3] | IC50 [4] | IC50 [5] | IC50 [6] | IC50 [7] | Ki [7]

Oc1ccccc1O [CATECHOL]
Not Active: IC50 [1] | IC50 [2] | IC50 [3] | IC50 [4] | IC50 [5] | IC50 [6] | IC50 [7] | Ki [7]

CO[C@@]1(NC(=O)CSCC#N)C(=O)N2C(C(=O)O)=C(CSc3nnnn3C)CS[C@@H]21 [CEFMETAZOLE]
Not Active: IC50 [1] | IC50 [2] | IC50 [3] | IC50 [4] | IC50 [5] | IC50 [6] | IC50 [7] | Ki [7]

CN(C(=O)CCCOc1ccc2[nH]c(=O)ccc2c1)C1CCCCC1 [CILOSTAMIDE]
Not Active: IC50 [1] | IC50 [2] | IC50 [3] | IC50 [4] | IC50 [5] | IC50 [6] | IC50 [7] | Ki [7]

CC(C)(Oc1ccc(C2CC2(Cl)Cl)cc1)C(=O)O (configuration not stated) [CIPROFIBRATE]
Not Active: IC50 [1] | IC50 [2] | IC50 [3] | IC50 [4] | IC50 [5] | IC50 [6] | IC50 [7] | Ki [7]

Nc1nc(Cl)nc2c1ncn2[C@H]1C[C@H](O)[C@@H](CO)O1 [CLADRIBINE]
Not Active: IC50 [1] | IC50 [2] | IC50 [3] | IC50 [4] | IC50 [5] | IC50 [6] | IC50 [7] | Ki [7]

CC[C@H]1OC(=O)[C@H](C)[C@@H](O[C@H]2C[C@@](C)(OC)[C@@H](O)[C@H](C)O2)[C@H](C)[C@@H](O[C@@H]2O[C@H](C)C[C@H](N(C)C)[C@H]2O)[C@](C)(OC)C[C@@H](C)C(=O)[C@H](C)[C@@H](O)[C@]1(C)O [CLARITHROMYCIN]
Not Active: IC50 [1] | IC50 [2] | IC50 [3] | IC50 [4] | IC50 [5] | IC50 [6] | IC50 [7] | Ki [7]

CCC[C@@H]1C[C@@H](C(=O)N[C@@H]([C@H]2O[C@H](SC)[C@H](O)[C@@H](O)[C@H]2O)[C@H](C)Cl)N(C)C1 [CLINDAMYCIN]
Not Active: IC50 [1] | IC50 [2] | IC50 [3] | IC50 [4] | IC50 [5] | IC50 [6] | IC50 [7] | Ki [7]

O=C(O)c1cc(=O)c2c(OCC(O)COc3cccc4oc(C(=O)O)cc(=O)c34)cccc2o1 [CROMOLYN]
Not Active: IC50 [1] | IC50 [2] | IC50 [3] | IC50 [4] | IC50 [5] | IC50 [6] | IC50 [7] | Ki [7]

— ChEMBL document CHEMBL1909046, “DrugMatrix in vitro pharmacology data”
